Experimental data as given in the supplement of paper PMC10307832.

Tests used:
Assay in all cases: relative viability (nuclei count vs DMSO), 5 days (fraction); higher = more cells survive
Linsitinib + Luminespib = compound: C[C@]1(O)C[C@@H](c2nc(-c3ccc4ccc(-c5ccccc5)nc4c3)c3c(N)nccn32)C1 [Linsitinib] + CCNC(=O)c1noc(-c2cc(C(C)C)c(O)cc2O)c1-c1ccc(CN2CCOCC2)cc1 [Luminespib] (partner 0.01 µM)
In short: (§1)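 Medians of duplicate plates are given as relative viability. That measure is the nuclei count in treated wells divided by the count in vehicle wells. Counts were taken on 4× images of lung cancer cell lines in 1536-well plates, 5 days after pin-tool dosing the day after seeding with one drug alone or a fixed anchor-drug dose plus five library-drug doses (not always all listed) in √10 steps.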

Ispinesib + Foretinib = compound: Cc1ccc(C(=O)N(CCCN)[C@@H](c2nc3cc(Cl)ccc3c(=O)n2Cc2ccccc2)C(C)C)cc1 [Ispinesib] + COc1cc2c(Oc3ccc(NC(=O)C4(C(=O)Nc5ccc(F)cc5)CC4)cc3F)ccnc2cc1OCCCN1CCOCC1 [Foretinib] (partner 0.25 µM)
In short: as §1

Ispinesib + Phenformin = compound: Cc1ccc(C(=O)N(CCCN)[C@@H](c2nc3cc(Cl)ccc3c(=O)n2Cc2ccccc2)C(C)C)cc1 [Ispinesib] + N=C(N)NC(=N)NCCc1ccccc1 [Phenformin] (partner 250 µM)
In short: as §1

Ispinesib + Vorinostat = compound: Cc1ccc(C(=O)N(CCCN)[C@@H](c2nc3cc(Cl)ccc3c(=O)n2Cc2ccccc2)C(C)C)cc1 [Ispinesib] + O=C(CCCCCCC(=O)Nc1ccccc1)NO [Vorinostat] (partner 1 µM)
In short: as §1

| Cell Line | relative viability (Linsitinib + Luminespib; first compound 0.01 µM) | relative viability (Linsitinib + Luminespib; first compound 0.03162 µM) | relative viability (Linsitinib + Luminespib; first compound 0.1 µM) | relative viability (Linsitinib + Luminespib; first compound 0.3162 µM) | relative viability (Linsitinib + Luminespib; first compound 1 µM) | relative viability (Ispinesib + Foretinib; first compound 0.001 µM) | relative viability (Ispinesib + Foretinib; first compound 0.003162 µM) | relative viability (Ispinesib + Foretinib; first compound 0.01 µM) | relative viability (Ispinesib + Foretinib; first compound 0.03162 µM) | relative viability (Ispinesib + Foretinib; first compound 0.1 µM) | relative viability (Ispinesib + Phenformin; first compound 0.001 µM) | relative viability (Ispinesib + Phenformin; first compound 0.003162 µM) | relative viability (Ispinesib + Phenformin; first compound 0.01 µM) | relative viability (Ispinesib + Phenformin; first compound 0.03162 µM) | relative viability (Ispinesib + Phenformin; first compound 0.1 µM) | relative viability (Ispinesib + Vorinostat; first compound 0.001 µM) | relative viability (Ispinesib + Vorinostat; first compound 0.003162 µM) | relative viability (Ispinesib + Vorinostat; first compound 0.01 µM) | relative viability (Ispinesib + Vorinostat; first compound 0.03162 µM) | relative viability (Ispinesib + Vorinostat; first compound 0.1 µM) |
| --- | --- | --- | --- | --- | --- | --- | --- | --- | --- | --- | --- | --- | --- | --- | --- | --- | --- | --- | --- | --- |
| NCI-H661 | 0.924 | 1.05 | 0.948 | 0.945 | 1.01 | 0.943 | 1.03 | 0.988 | 0.71 | 0.27 | 0.288 | 0.299 | 0.224 | 0.195 | 0.216 | 0.869 | 0.804 | 0.849 | 0.302 | 0.19 |
| NCI-H1944 | 0.755 | 0.793 | 0.727 | 0.637 | 0.532 | 0.797 | 0.908 | 0.9 | 0.627 | 0.677 | 0.199 | 0.247 | 0.206 | 0.167 | 0.106 | 0.671 | 0.496 | 0.575 | 0.345 | 0.152 |
| NCI-H23 | 0.218 | 0.207 | 0.211 | 0.219 | 0.203 | 1.05 | 1.03 | 1.17 | 0.934 | 0.299 | 0.921 | 0.752 | 0.795 | 0.61 | 0.171 | 0.542 | 0.619 | 0.647 | 0.419 | 0.21 |
| SW 900 | 0.169 | 0.204 | 0.189 | 0.162 | 0.165 | 0.813 | 0.76 | 0.927 | 0.854 | 0.204 | 0.619 | 0.41 | 0.812 | 0.427 | 0.21 | 0.523 | 0.606 | 0.478 | 0.449 | 0.294 |
| NCI-H2342 | 0.662 | 0.754 | 0.702 | 0.714 | 0.536 | 1.16 | 1 | 1 | 1.09 | 0.793 | 0.671 | 0.634 | 0.685 | 0.523 | 0.378 | 0.664 | 0.724 | 0.797 | 0.75 | 0.554 |
| HCC-366 | – | – | – | – | – | 0.895 | 0.959 | 0.994 | 0.913 | 0.0534 | 0.635 | 0.633 | 0.657 | 0.692 | 0.0242 | 0.353 | 0.512 | 0.351 | 0.216 | 0.0545 |
| EBC-1 | – | – | – | – | – | 0.111 | 0.101 | 0.109 | 0.0927 | 0.0893 | – | – | – | – | – | – | – | – | – | – |
| ChaGo-K-1 | 0.644 | 0.535 | 0.544 | 0.699 | 0.728 | 0.909 | 0.867 | 0.993 | 0.926 | 0.629 | 0.519 | 0.5 | 0.529 | 0.535 | 0.172 | 0.838 | 0.744 | 0.827 | 0.765 | 0.232 |
| LCLC-97TM1 | 0.753 | 0.854 | 0.622 | 0.501 | 0.678 | 0.928 | 0.948 | 0.933 | 0.856 | 0.56 | 0.356 | 0.435 | 0.486 | 0.336 | 0.129 | 0.645 | 0.847 | 1.04 | 0.289 | 0.0855 |
| NCI-H1299 | – | – | – | – | – | 1.14 | 1.13 | 1.14 | 1.09 | 0.584 | – | – | – | – | – | – | – | – | – | – |
| EMC-BAC-2 | 1.07 | 1.2 | 1.26 | 1.01 | 0.95 | 1.03 | 0.621 | 0.997 | 0.818 | 0.39 | 0.557 | 0.545 | 0.534 | 0.372 | 0.209 | 0.539 | 0.745 | 0.419 | 0.147 | 0.365 |
| NCI-H1623 | 0.43 | 0.483 | 0.5 | – | 0.307 | 0.929 | 1.03 | 0.887 | 0.823 | 0.62 | 0.587 | 0.597 | 0.617 | 0.563 | 0.396 | – | – | – | – | – |
| NCI-H441 | 0.296 | 0.327 | 0.211 | 0.245 | 0.281 | 0.926 | 1 | 1.19 | 0.419 | 0.291 | 0.977 | 0.823 | 0.84 | 0.247 | 0.301 | 0.838 | 0.909 | 0.91 | 0.548 | 0.256 |
| LCLC-103H | 1.06 | 0.965 | 0.918 | 0.813 | 0.838 | 0.869 | 1.03 | 0.95 | 0.665 | 0.693 | 0.34 | 0.389 | 0.366 | 0.293 | 0.269 | 0.827 | 0.86 | 0.845 | 0.515 | 0.352 |
| HCC-44 | 1.12 | 1.01 | 0.818 | 0.68 | 0.912 | – | – | – | – | – | 0.252 | 0.175 | 0.146 | 0.1 | 0.0891 | 1.04 | 1.05 | 1.15 | 1.23 | 1.08 |
| IA-LM | – | – | – | – | – | 1.21 | 1.51 | 1.45 | 1.06 | 0.132 | – | – | – | – | – | 0.889 | 0.863 | 1.01 | 1.23 | 0.369 |
| A549 | – | – | – | – | – | 1.13 | 1.19 | 1.2 | 0.757 | 0.0545 | 0.12 | 0.18 | 0.899 | 0.0923 | 0.048 | – | – | – | – | – |
| NCI-H1563 | 0.599 | 0.607 | 0.51 | 0.486 | 0.525 | 0.895 | 0.879 | 0.984 | 0.845 | 0.798 | 0.663 | 0.685 | 0.696 | 0.63 | 0.54 | – | – | – | – | – |
| Calu-6 | – | – | – | – | – | 0.981 | 0.887 | 0.854 | 0.39 | 0.125 | – | – | – | – | – | – | – | – | – | – |
| HCC-78 | – | – | – | – | – | 0.558 | 0.567 | 0.542 | 0.525 | 0.559 | 0.738 | 0.896 | 0.743 | 0.51 | 0.543 | 0.422 | 0.49 | 0.459 | 0.404 | 0.414 |
| NCI-H1648 | – | – | – | – | – | – | – | – | – | – | – | – | – | – | – | 0.594 | 0.682 | 0.422 | 0.634 | 0.428 |
